Data from US8436027B2, “Azole compounds used as tuberculostatic and leishmanicide agents” (priority 2005, dated 2013).
“And” between values parts separate entries of the source, which are not always exact repeats. Identical values can stand only once.

How the values were obtained:
[1] = tested on: promastigote forms of Leishmania amazonensis; assay: Leishmanicide evaluation in vitro, live parasites counted by fluorescence; format: cell-based; conditions: for leishmanicide activity (inhibition): Table 6; for Percentage of parasitic inhibition: L. amazonensis promastigotes
Protocol: The evaluation of the Leishmanicide activity of the type I and II 1,2,3-triazole derivatives was made through in vitro essays against promastigote forms of Leishmania amazonensis, and after the incubation with compounds, live parasites are counted by fluorescence, thus obtaining as a result, the percentage of inhibition of the compounds evaluated.
Essays were performed in triplicate using pentamidine as a positive pattern with a 160 μg/mL concentration.
The evaluation of the leishmanicide activity of type I (Formula XII) and II (Formula XIII) imidazole derivatives was performed through in vitro essays against promastigote forms of Leishmania amazonensis, and after the incubation with compounds, live parasites are counted by fluorescence, thus obtaining as a result the inhibition percentage of the evaluated compounds.
Essays were performed in triplicate using pentamidine as a positive pattern with a 160 μg/mL concentration, determining which compounds evaluated inhibited the parasite in lower concentrations and the percentage higher than the pattern. Table 6 lists the results obtained in the leishmanicide evaluation of derivatives 140a 148a 146a, 149a.

[2] = tested on: Mycobacterium tuberculosis H37Rv (ATCC-27294); assay: MIC by MABA (Microplate Alamar Blue Assay), antimicrobial activity; format: cell-based; conditions: M. tuberculosis H37Rv (ATCC 27294); for MIC: MABA, 5 days incubation + 24 h Alamar Blue; for Inhibition (%): concentration not given
[3] = tested on: M. tuberculosis; conditions: background statement; cited from earlier work

For `N=C(N)c1ccc(OCCCCCOc2ccc(C(=N)N)cc2)cc1` [pentamidine], the “leishmanicide activity (inhibition)” value ([1]; Conc. 5 μ/mL) was “No inhibition”, the “leishmanicide activity (inhibition)” value ([1]; Conc. 10 μ/mL) was “No inhibition” and the “leishmanicide activity (inhibition)” value ([1]; Conc. 20 μ/mL) was “No inhibition”. The “leishmanicide activity (inhibition)” value ([1]; Conc. 80 μ/mL) was “No inhibition”, the “Percentage of parasitic inhibition” value ([1]; Concentration 5 μg/mL) was “No inhibition” and the “Percentage of parasitic inhibition” value ([1]; Concentration 10 μg/mL) was “No inhibition”. For the same compound, the “Percentage of parasitic inhibition” value ([1]; Concentration 20 μg/mL) was “No inhibition” and the “Percentage of parasitic inhibition” value ([1]; Concentration 80 μg/mL) was “No inhibition”.

In the case of `O=Cc1cn(-c2ccc(Cl)cc2)nn1` [114a, 4-carboxaldehyde-1-(4-chlorophenyl)-1H-1,2,3-triazole], the MIC [2] is reported as 5 µg/mL and 5.0 µg/mL.

With `O=Cc1cn(-c2ccc([N+](=O)[O-])cc2)nn1` [114j, 4-carboxaldehyde-1-(4-nitrophenyl)-1H-1,2,3-triazole] the MIC [2] was 20.0 µg/mL.

With `COc1ccc(OC)c(-n2cc(C=O)nn2)c1` [114e, 4-carboxaldehyde-1-(2,5-dimethoxyphenyl)-1H-1,2,3-triazole] the MIC [2] was 80.0 µg/mL and the “Inhibition (%)” value [2] was 59%.

In the case of `O=[N+]([O-])c1ccc(-n2cc(C(F)F)nn2)cc1` [121j, 1-(4-nitrophenyl)-4-difluoromethyl-1H-1,2,3-triazole], the MIC [2] is reported as 40.0 µg/mL.

With `COc1ccccc1-n1cc(C=O)nn1` [114l, 4-carboxaldehyde-1-(2-methoxyphenyl)-1H-1,2,3-triazole] the MIC [2] was 40.0 µg/mL and the “Inhibition (%)” value [2] was 94%.

For `Brc1ccc(/N=C/c2cn(-c3ccc(Br)cc3)nn2)cc1` [compound 120, (E)-4-bromo-N-((1-(4-bromophenyl)-1H-1,2,3-triazole-4-il)methylene)benzenamine], the MIC [2] was 20 µg/mL.

In the case of `O=Cc1cn(-c2ccc(Br)cc2)nn1` [114b, 4-carboxaldehyde-1-(4-bromophenyl)-1H-1,2,3-triazole], the MIC [2] is reported as 5.0 µg/mL and the “Inhibition (%)” value [2] is reported as 100%.

`N#Cc1ccc(-n2cc(C=O)nn2)cc1` [114i, 4-carboxaldehyde-1-(4-cyanophenyl)-1H-1,2,3-triazole] gave an MIC [2] of 5.0 µg/mL.

`Clc1ccc(/N=C/c2cn(-c3ccc(Cl)cc3)nn2)cc1` [compound 119, (E)-4-chloride-N-((1-(4-chlorophenyl)-1H-1,2,3-triazole-4-il)methylene)benzenamine] showed an MIC [2] of 40 µg/mL.

With `N#Cc1cccc(-n2cc(C=O)nn2)c1` [114h, 4-carboxaldehyde-1-(3-cyanophenyl)-1H-1,2,3-triazole] the MIC [2] was 20.0 µg/mL.

For `NNC(=O)c1ccncc1` [INH, isoniazide], the “minimum inhibitory concentration (MIC)” value [3] is listed as 0.02 to 0.06 µg/mL.

Compound `FC(F)c1cn(-c2ccc(Cl)cc2)nn1` [121a, 1-(4-chlorophenyl)-4-difluoromethyl-1H-1,2,3-triazole] has an MIC [2] of 40.0 µg/mL.

Compound `COc1ccc(-n2cc(C=O)nn2)cc1OC` [114m, 4-carboxaldehyde 1-(3,4-dimethoxyphenyl)-1H-1,2,3-triazole] has an MIC [2] of 80.0 µg/mL.

For `Cc1ccc(-n2cc(C=O)nn2)cc1` [114c, 4-carboxaldehyde-1-(4-methylphenyl)-1H-1,2,3-triazole], the MIC [2] was 2.5 µg/mL and the “Inhibition (%)” value [2] was 100%.

With `O=Cc1cn(-c2cccc(Cl)c2)nn1` [114f, 4-carboxaldehyde-1-(3-chlorophenyl)-1H-1,2,3-triazole] the “Percentage of parasitic inhibition” value ([1]; Concentration 20 μg/mL) was “No inhibition”.

For `O=Cc1cn(-c2cc(Cl)cc(Cl)c2)nn1` [114g, 4-carboxaldehyde-1-(3,5-dichlorophenyl)-1H-1,2,3-triazole], the MIC [2] was 2.5 µg/mL.

With `COc1ccc(-n2cc(C=O)nn2)cc1` [114d, 4-carboxaldehyde-1-(4-methoxyphenyl)-1H-1,2,3-triazole] the MIC [2] was 10.0 µg/mL and the “Inhibition (%)” value [2] was 100%.
